Measured values: patent US10591461B2, “Method of drug design and optimisation utilizing stereochemical mimicry” (The Trustees of the University of Pennsylvania, priority 2016, dated 2020)
Ends that are not written are not given here.

Tests used:
neuro-2a cells = experiment: Confocal microscopy imaging of neuronal cells (neurite outgrowth, qualitative); assay type: cell-based, Mouse; conditions: for number of projections (increase from no treatment): confocal images, FIG. 7
Description: (§1) Once the three compounds were synthesized the neurite outgrowth assay was used in order to determine the effectiveness of the aza-proline derivatives in comparison with the Glyx-13. Mouse neuroblastoma cells (Neuro-2a cells) were used in order to measure the increase in neurite growth between untreated cells and those treated with the test compounds. A plate reader assay was used where 9,000 cells/cm^2 were treated with the compounds at 0.01, 0.10, and 1.00 μM concentrations for 48 hours. Several controls were used as well, including wells with no cell and compound, cells with no compound (just water), and wells with no cells and water. After treatment with the compounds, the cells were washed in DPBS buffer and treated with cell viability indicator and a membrane stain for 20 minutes before being washed again and treated with a background suppression dye. The plate reader assay was inconclusive for some of the concentrations of the compounds, but the 0.10 μM data is promising. (FIG. 6)

[1] = system: Mouse neuroblastoma cells (Neuro-2a cells); assay type: cell-based; conditions: 0.10 μM, 48 hours, vs untreated cells; FIG. 6; preliminary data
Description: as §1

Compound	number of projections (increase from no treatment) (neuro-2a cells)	size of the neurites (membrane stain) [1]	effectiveness compared with control compound Glyx-13 (neuronal projections and dendrite length) (neuro-2a cells; confocal microscope data)
C[C@@H](O)[C@H](N)C(=O)N1CCCN1C(=O)N1CCC[C@H]1C(=O)N[C@H](C(N)=O)[C@@H](C)O [Glyx-1]	even more noticeable	–	–
C[C@@H](O)[C@H](N)C(=O)N1CCC[C@H]1C(=O)N1CCCN1C(=O)N[C@H](C(N)=O)[C@@H](C)O [Glyx-2]	even more noticeable	significant increase	significantly more effective
Thr-Pro-Pro-Thr-NH2 (TPPT-NH2) [Glyx-13, tetrapeptide, parent and control compound, NMDA receptor glycine-site partial agonist, reference compound]	significant increase	–	–
